Legend:
[1] = tested on: bleomycin intra airway administration induced mouse pulmonary fibrosis model; test: Lung pathological tissue (picrosirius red staining, hydroxyproline content), Example 1; type: in vivo; settings: Day 21, compound (I) 10 mg/kg once a day, eplerenone 50 mg/kg twice a day; for positive rate (PSR Positive %) in picrosirius red staining: left lung lobes; for hydroxyproline content (μg): lower lung lobes and middle lung lobe
Protocol: (§1) C57/BL6NTAC mice (male; body weight at start of a test: 25 g) (manufactured by The Jackson Laboratory) were grouped into the following 4 groups (12 mice in each group):
(§2) Group 1: normal group Group 2: no drug administration group (control group) Group 3: drug (the compound (I)) administration group Group 4: drug (eplerenone; positive control) administration group
(§3) On a day (Day 0) when the test was started, bleomycin (3.25 U/kg) was administered dropwise through airways to the mice of Groups 2-4 as test groups. Instead of bleomycin, saline was administered dropwise through airways to the mice of Group 1 as a normal group. On a seventh day (Day 7) after the start of the test, with a dosing schedule of twice a day in the morning and afternoon, oral gavage administration (twice in the morning and afternoon) of a vehicle (0.1% HCO60+0.5% CMC) was started for the mice of Groups 1 and 2; a 2 mg/ml solution of the compound (I) was prepared and oral gavage administration (in the morning) thereof at a dose of 10 mg/kg and oral gavage administration (in the afternoon) of a vehicle (0.1% HCO60+0.5% CMC) were started for the mice of Group 3; and oral gavage administration (twice in the morning and afternoon) of eplerenone at a dose of 50 mg/kg was started for the mice of Group 4. Thereafter, until a 21st day (Day 21) after the start of the test, the administrations were continued at the same dosing schedules. After the administrations were completed (Day 21), the following evaluation items were examined.
Pulmonary fibrosis is caused by that activated fibroblasts are accumulated at a fibrosis site and a large amount of type I collagen is produced. Therefore, based on a degree of collagen accumulation in a lung tissue, a degree of pulmonary fibrosis can be evaluated. Type I collagen and type III collagen in a tissue are stained by picrosirius red staining. Therefore, a situation of collagen accumulation can be image-diagnosed, and quantitative evaluation can also be performed by calculating a staining positive rate.
Specifically, the above staining was performed on a tissue section of the lungs, and an area of a stained site (fibrosis site) was measured and evaluated.
Hydroxyproline is a major component of collagen and is substantially absent in other proteins. Therefore, by measuring a content of hydroxyproline in a tissue, an amount of collagen can be evaluated.

[2] = tested on: gene expression associated with pulmonary fibrosis; test: Gene expression fluctuation associated with pulmonary fibrosis (mRNA, real time PCR, upper lung lobes), Example 1; type: in vivo, mouse; settings: Day 21, compound (I) 10 mg/kg once a day, eplerenone 50 mg/kg twice a day
Protocol: as §1, §2, §3
(iii) Evaluation of Gene Expression Fluctuation Associated with Pulmonary Fibrosis (Quantification of mRNA; Fold Increase) (Upper Lung Lobes)
According to a conventional method, mRNA was extracted from a homogenized upper lung lobe, and an extremely small amount of the mRNA was quantified using a real time PCR system.

[3] = tested on: bleomycin intra airway administration induced mouse pulmonary fibrosis model; test: Lung functions in bleomycin intra airway administration induced mouse pulmonary fibrosis model (Example 1); type: in vivo; settings: Day 21; oral gavage Day 7-21; compound (I) 10 mg/kg once a day, eplerenone 50 mg/kg twice a day; vs bleomycin control group
Protocol: as §1, §2, §3
The following evaluation items were measured using a commercially available respiratory and lung function evaluation system (measurement site: around an airway). Evaluation of 4 items including: 1) inspiratory capacity (mL); 2) compliance (mL/cmH2O); 3) elastance) (cmH2O/mL); and 4) resistance (cmH2O.s/mL)
The “inspiratory capacity” corresponds to an amount of air discharged from the lungs at a stage when slowly breathing out to an end of a breath has completed, and is an indicator of a volume of the lungs. As pulmonary fibrosis progresses and the lung hardens, the volume of the lungs shrinks, and the inspiratory capacity decreases.
The “compliance” indicates a change in a lung capacity due to a certain change in pressure. […] As pulmonary fibrosis progresses and the lungs harden, the volume of the lungs shrinks, and the compliance decreases.
The “elastance” is a value represented by a reciprocal of the compliance, and is an indicator representing the difficulty for the lungs to stretch. As pulmonary fibrosis progresses and the lungs harden, the elastance increases.
The “resistance” means an airway resistance. The resistance is a resistance received by an air current in respiration, and a larger resistance means that it is harder for air to flow through the airway.

CYP3A4 = CYP3A4 (Homo sapiens, UniProt P08684); settings: background statement; cited from earlier work
Sequence of CYP3A4 (P08684 whole entry): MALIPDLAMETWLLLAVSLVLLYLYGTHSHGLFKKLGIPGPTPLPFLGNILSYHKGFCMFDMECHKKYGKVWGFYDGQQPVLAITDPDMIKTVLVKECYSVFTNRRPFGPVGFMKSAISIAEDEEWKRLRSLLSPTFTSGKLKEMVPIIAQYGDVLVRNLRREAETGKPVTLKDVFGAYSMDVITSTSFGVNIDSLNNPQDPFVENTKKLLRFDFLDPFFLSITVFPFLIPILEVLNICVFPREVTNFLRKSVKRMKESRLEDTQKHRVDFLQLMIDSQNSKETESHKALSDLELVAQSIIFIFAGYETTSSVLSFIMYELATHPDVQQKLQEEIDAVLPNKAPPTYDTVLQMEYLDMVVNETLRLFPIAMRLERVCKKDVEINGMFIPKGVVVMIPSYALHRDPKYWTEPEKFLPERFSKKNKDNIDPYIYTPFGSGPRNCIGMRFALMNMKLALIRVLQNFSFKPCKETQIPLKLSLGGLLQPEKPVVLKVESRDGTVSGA

[4] = tested on: bleomycin-induced pulmonary fibrosis mice; settings: literature reports; cited from earlier work
[5] = tested on: bleomycin subcutaneous continuous infusion induced mouse pulmonary fibrosis model; test: Lung functions in bleomycin subcutaneous continuous infusion induced mouse pulmonary fibrosis model (Example 2); type: in vivo
Protocol: (§4) Body weights of the mice of the test group were measured daily, and, on the seventh day (Day 7) after the start of the test, the mice of the test group were randomly grouped as follows using an amount of decrease in body weight as an indicator.
(§5) Group 2: no drug administration group (control group) (12 mice) Group 3: drug (the compound (I), 3 mg/kg) administration group (12 mice) Group 4: drug (the compound (I), 10 mg/kg) administration group (12 mice) Group 5: drug (the compound (I), 30 mg/kg) administration group (12 mice)
(§6) From an eighth day (Day 8) after the start of the test, oral gavage administration of a vehicle (0.1 ml per 10 g body weight) to the mice of Group 1 as the normal group and the mice of Group 2 as the no drug administration group was started, and, on the other hand, oral gavage administration of the compound (I) of a predetermined dosage to the mice of the drug administration groups of Groups 3-5 was started (for all groups, once a day in the morning). Thereafter, until a 21st day (Day 21) after the start of the test, the administrations were continued. After the administrations were completed, the following items were evaluated.
Evaluation of 4 items including: 1) inspiratory capacity (mL); 2) compliance (mL/cmH2O); 3) elastance) (cmH2O/mL); and 4) resistance (cmH2O.s/mL)

[6] = Concentration of the compound (I) in blood plasma, Example 1; type: in vivo, mouse; settings: 10 mg/kg oral
Protocol: as §3, with “After the administrations were completed (Day 21), the following evaluation items were examined.” left out
At 2 hours (before the above evaluations) and at 18 hours from the final administration of the compound (I) (Day 21), a small amount of blood was collected from a tail vein under anesthesia, and plasma was separated with an ice-cooled centrifuge, and a concentration (nM) of the compound (I) in the plasma was measured using a conventional method.

[7] = Concentration of the compound (I) in blood plasma, Example 2; type: in vivo, mouse
Protocol: as §6
Evaluation of a concentration (nM) of the compound (I) in a blood plasma at 2 hours (before the above evaluations) and at 24 hours after the final administration (Day 21) (similar to Example 1, blood samples obtained by tail vain blood sampling were evaluated.)

[8] = tested on: bleomycin subcutaneous continuous infusion induced mouse pulmonary fibrosis model; test: Lung pathological tissue (picrosirius red staining, hydroxyproline content), Example 2; type: in vivo; settings: for hydroxyproline content (μg): right lung lobes
Protocol: as §4, §5, §6
i) Evaluation by Picrosirius Red Staining (Left Lung Lobes)
ii) Evaluation of Hydroxyproline Content (μg) (Right Lung Lobes)

[9] = 30 mg/kg oral once a day, Day 8-21 (Group 5)
[10] = 3, 10 and 30 mg/kg oral once a day, Day 8-21 (Groups 3-5), dose-dependent

| SMILES | positive rate (PSR Positive %) in picrosirius red staining [1] | hydroxyproline content (μg) [1] | CTGF gene expression [2] | Ccl2 gene expression [2] | PAI-1 gene expression [2] | TGFβ gene expression [2] | fibronectin gene expression [2] | type I collagen gene expression [2] | type III collagen gene expression [2] | type IV collagen gene expression [2] | vimentin gene expression [2] | αSMA gene expression [2] | compliance (mL/cmH2O) [3] | elastance (cmH2O/mL) [3] | inspiratory capacity (mL) [3] | resistance (cmH2O.s/mL) [3] | other results |
| --- | --- | --- | --- | --- | --- | --- | --- | --- | --- | --- | --- | --- | --- | --- | --- | --- | --- |
| COC(=O)[C@@H]1CC2=CC(=O)CC[C@]2(C)[C@@]23O[C@@H]2C[C@@]2(C)[C@@H](CC[C@@]24CCC(=O)O4)[C@H]13 [eplerenone, reference compound] | significantly improved | significantly improved | significantly reduced | significantly reduced | significantly reduced | tendency to increase | significantly reduced | could not reduce | could not reduce | could not reduce | significantly reduced | could not reduce | significantly improved | significantly improved | significantly improved | significantly improved | metabolizing enzyme (CYP3A4): mainly metabolized by CYP3A4 |
| CC(=O)S[C@@H]1CC2=CC(=O)CC[C@]2(C)[C@H]2CC[C@@]3(C)[C@@H](CC[C@@]34CCC(=O)O4)[C@H]12 [spironolactone] | – | – | – | – | – | – | – | – | – | – | – | – | – | – | – | – | accumulation of hydroxyproline (indicator of tissue fibrosis) [4]: improves |
| CC1(C)Oc2cc(NS(C)(=O)=O)ccc2N(c2ccc(F)cc2)C1=O [compound (I)] | significantly improving | significantly improved to an extent exceeding the effect of eplerenone | significantly reduced | significantly reduced | significantly reduced | tendency to decrease | significantly reduced | significantly reduced | significantly reduced | significantly reduced | significantly reduced | significantly reduced | significantly improving | significantly improving | significantly improved to an extent exceeding the effect of eplerenone | very significantly improved to a level of the normal group exceeding the effect of eplerenone | inspiratory capacity (mL) ([5]; 10 mg/kg oral once a day, Day 8-21 (Group 4)): significantly improved; inspiratory capacity (mL) [5, 9]: significantly improved; resistance (cmH2O.s/mL) [5, 9]: significantly improved; compliance (mL/cmH2O) [5, 10]: significantly improved; elastance (cmH2O/mL) [5, 10]: significantly improved; concentration of the compound (I) in a blood plasma ([6]; 2 hours after the final administration (Day 21)): sufficient concentration; concentration of the compound (I) in a blood plasma ([6]; 18 hours after the final administration (Day 21)): sufficient concentration; concentration of the compound (I) in a blood plasma ([7]; 2 hours after the final administration (Day 21), 3, 10, 30 mg/kg oral): dose-dependent concentration; concentration of the compound (I) in a blood plasma ([7]; 24 hours after the final administration (Day 21), 30 mg/kg oral): sufficient concentration; positive rate in picrosirius red staining ([8]; left lung lobes, all the doses 3, 10, 30 mg/kg oral once a day (Groups 3-5)): significantly decreased; hydroxyproline content (μg) ([8]; 3 mg/kg oral once a day, Day 8-21 (Group 3)): significantly decreased; hydroxyproline content (μg) [8, 9]: significantly decreased |
